According to PMC10424183, “Determination of Ligand-Binding Affinity (Kd) Using Transverse Relaxation Rate (R2) in the Ligand-Observed ^1H NMR Experiment and Applications to Fragment-Based Drug Discovery” (Journal of Medicinal Chemistry, 2023):
Read-outs that look alike come from different tables or passages of the source.

Key:
CRBN/DDB1 complex [1] = biological target: T1, CRBN/DDB1 complex (Homo sapiens, UniProt Q96SW2); details: known Ki from biochemical binding assay, Δ39CRBN/ΔBPBDDB1 complex; cited from earlier work
T1 construct: made in house
T1 sequence (Q96SW2 40-442 limits assumed, species assumed, one chain of several): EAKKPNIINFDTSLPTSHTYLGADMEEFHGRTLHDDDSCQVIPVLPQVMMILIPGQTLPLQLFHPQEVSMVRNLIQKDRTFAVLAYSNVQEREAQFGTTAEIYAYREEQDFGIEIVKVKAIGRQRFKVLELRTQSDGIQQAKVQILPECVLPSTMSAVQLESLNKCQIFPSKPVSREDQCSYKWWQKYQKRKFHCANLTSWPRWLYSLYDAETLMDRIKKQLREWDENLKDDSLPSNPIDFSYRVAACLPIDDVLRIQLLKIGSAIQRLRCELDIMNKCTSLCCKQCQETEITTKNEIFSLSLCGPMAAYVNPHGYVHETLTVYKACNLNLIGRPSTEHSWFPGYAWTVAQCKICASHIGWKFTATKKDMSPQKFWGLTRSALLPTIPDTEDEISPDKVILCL

CRBN/DDB1 complex [2] = biological target: T1, CRBN/DDB1 complex; assay: R2 values of fragment hits at two ligand concentrations (preliminary ranking); format: binding; details: 2 μM CRBN/DDB1 complex; for average R2, compound at 50 μM: 50 μM ligand; for average R2, compound at 200 μM: 200 μM ligand; for average R2, differences: R2 at 50 μM minus R2 at 200 μM
Protocol: (§1) Here, we present how we used the R2KD assay to triage fragment hits against the CRBN/DDB1 complex. The CRBN/DDB1 complex is part of the E3 ligase system, with its thalidomide-binding domain (TBD) pocket critical for recruiting its substrate protein.[20] […] The R2 values of these fragments were measured at two ligand concentrations (200 and 50 μM) against 2 μM of the CRBN/DDB1 complex. This enabled preliminary ranking of hits. The hits with larger R2 differences rank higher. […] We also determined IC50 of the top 10 fragments using a FP based biochemical assay.[17]
(§2) The T2 relaxation experiment was acquired using pulse program CPMG with 3-9-19 pulse sequence with gradients incorporated to suppress the water signal.[22] Extra water suppression was achieved by adding presaturation during D1. The spin-echo period (delay-180°-delay) was set to 1 msec (d20 is 500 μs), and the relaxation delay (d1) was set to 10 s. The pseudo-2D experiment contained nine slices with spin-echo period repeated the following times: 4, 20, 100, 200, 300, 500, 700, 1000, and 2000.

CRBN/DDB1 complex [3] = biological target: T1, CRBN/DDB1 complex; assay: R2KD ligand-observed 1H NMR assay (Kd from transverse relaxation rate R2); format: binding
Protocol: 10 samples were prepared: samples 1–8 containing increasing ligand concentration (maintaining constant protein concentration); sample 9 and 10 containing only ligands at two different concentrations (protein absent). These two samples served as control samples to obtain the R2 values of free ligand. The final percentage of DMSO-d6 in all samples were identical to minimize possible impacts of DMSO-d6.
as §1, §2
Nonlinear regression analysis was carried out using GraphPad Prism 9.2.0. […] Three parameters: P, α, and Kd were in the equation with the initial value set at 1. […] CIs of parameters was calculated at 95% level using Asymmetrical (Profile-likelihood) CI.

CRBN/DDB1 complex [4] = biological target: T1, CRBN/DDB1 complex; assay: FP based biochemical assay; format: binding; details: top 10 fragments
Text: To determine the accuracy of Kd measured using the R2KD assay, we tested seven small molecule ligands (Figure 4) against three protein targets (BCL6, CRBN/DDB1 complex, and ERAP1) and compared their Kd values from the R2KD assay with known Ki values (Table 1) obtained in biochemical binding assays[15],[17],[18] or Kd value from the SPR binding assay.[19] We found good agreements between the Kd values and the Ki values, with most of them less than two-fold difference from those determined from biochemical or biophysical assays. […] We found the assay setup to be simple and positive controls unnecessary, making the approach suitable for new and challenging targets.
Here, we present how we used the R2KD assay to triage fragment hits against the CRBN/DDB1 complex. The CRBN/DDB1 complex is part of the E3 ligase system, with its thalidomide-binding domain (TBD) pocket critical for recruiting its substrate protein.[20] A fragment library, composed of around 1000 compounds, was screened using R2 relaxation edited ^1H-NMR experiments, with 19 fragments subsequently identified as competitive hits for the TBD pocket. The R2 values of these fragments were measured at two ligand concentrations (200 and 50 μM) against 2 μM of the CRBN/DDB1 complex. This enabled preliminary ranking of hits. The hits with larger R2 differences rank higher. […] We then measured the Kd values of the top 10 fragments using R2KD assay and confirmed the ranking order (Table 2). We also determined IC50 of the top 10 fragments using a FP based biochemical assay.[17]

[5] = fragment hit triage, top 10 fragments, read-out: R2KD assay Kd

SMILES | Ki (CRBN/DDB1 complex [1]) [µM] | average R2, compound at 50 μM (CRBN/DDB1 complex [2]) | average R2, compound at 200 μM (CRBN/DDB1 complex [2]) | average R2, differences (CRBN/DDB1 complex [2]) | Kd (CRBN/DDB1 complex [3]; R2KD assay, Δ39CRBN/ΔBPBDDB1 complex, repeated three times (average), read-out: Kd) [µM] | Kd (CRBN/DDB1 complex [3]; [5]) [µM] | IC50 (CRBN/DDB1 complex [4]) [µM]
Cc1ccc(N2CC(=O)NC2=O)cc1 [CCT010354] | 294 | 4.9 | 2 | 2.9 | 156 | 122 | 240
CNC(=O)c1nc(-c2ccccc2)n(-c2ccccc2)n1 [CCT226703] |  | 1.5 | 1.4 | 0.1 |  |  | 
CCOc1cccc(C2CC(=O)NC3=C2C(=O)CCC3)c1 (stereo not shown) [CCT228041] |  | 1.6 | 1.5 | 0.1 |  |  | 
N#CCCCN1C(=O)COc2ccc(Cl)cc21 [CCT228155] |  | 3 | 2.2 | 0.8 |  | 798 | 1640
CCOc1ccc(C2CNC(=O)C2)cc1 (stereo not shown) [CCT239822] |  | 3.6 | 2.4 | 1.2 |  | 532 | 780
O=CN1CCN(Cc2c(F)cccc2Cl)CC1 [CCT240107] |  | 1.6 | 1.5 | 0.1 |  |  | 
O=CN1CCN(Cc2cccc(Cl)c2)CC1 [CCT240121] |  | 3.8 | 3.3 | 0.4 |  |  | 
O=C(c1ccc(F)cc1)N1CCN(c2ccccc2)CC1 [CCT240195] |  | 1.6 | 1.4 | 0.2 |  |  | 
O=c1ccn(Cc2ccccc2)c(=O)[nH]1 [CCT240207] |  | 3.4 | 1.2 | 2.2 |  | 86 | 168
